# In US6265617A, “Process for the preparation of 3,5,5-trimethylcyclohexa-3-en-1-one (β-isophorone) by isomerization of 3,5,5- trimethylcyclohexa-2-en-1-one (α-isophorone)” (Degussa-Huls Aktiengesellschaft, priority 1998, dated 2001):
# Test: Catalyst activity in liquid-phase isomerization of α-isophorone to β-isophorone
# Details: for Rate of formation of β-IP: boiling point, normal pressure, 25 vol.% withdrawal
# Excerpt: The apparatus for carrying out the isomerization consists of a mushroom-shaped heater, an isomerization flask with attached distillation column, through which a primary mixture composed of α-IP and β-IP is withdrawn, and a pump for recirculating the unreacted α-isophorone left after the purifying distillation of β-IP. […] The suspension is heated to boiling point at normal pressure and the quantity of the α-IP delivered by a Telab pump is coordinated with the quantity of the distillate withdrawn.
# The primary distillate obtained is conveyed to a distillation column operating at a partial vacuum of 5 mbar to 100 mbar. […] The bottom product consisting of unreacted α-isophorone is returned to the isomerization reactor.
# (§1) Technical sodium hydroxide in various concentrations is stirred into α-IP in the apparatus already described above. With the identical continuous procedure (see Example 1), at the top of the isomerization unit a withdrawal rate of 25 vol.% of a primary distillate is established, based on the quantity of isomerization and the reflux ratio.
# as §1, with “potassium carbonate” for “sodium hydroxide”
# Various catalysts containing alkali-metal cations are compared with regard to their catalytic activity during the isomerization under conditions corresponding to those in the previous Examples.
# Various alkali-metal bases and alkaline-earth bases used as catalysts are compared with regard to their catalytic activity during the isomerization under conditions corresponding to those in the previous Examples.
# Various catalysts containing alkali-metal cations and the elements are compared with regard to their catalytic activity during the isomerization under conditions corresponding to those in the previous Examples.
# [1] = 2 × 10^-2 mol.% catalyst per mol α-IP
# [2] = 2 × 10^-0 mol.% catalyst per mol α-IP
# [3] = 0.2 mmol K2CO3 for 1 mol α-IP, illustrative calculation
# [4] = 2 × 10^-1 mol.% catalyst per mol α-IP
SMILES,Rate of formation of β-IP [1] [g β-IP/h/liter α-IP],also measured
[BH4-].[Li+] [LiBH4],46.1,–
CC(=O)O [Na(CH3 CO2)],49.2,–
O=C(O)O [KHCO3],64.4,–
[Li+].[OH-] [LiOH],61.3,–
"O=C(O)O [Na2 CO3, sodium carbonate]",47.4,"calculated yield based on the quantity of catalyst used, Yβ-IP (0.2 mol.% catalyst, continuous operation): 229.7 kg β-IP/h/kgcat.; space-time yield (per hour and quantity of catalyst used) Y (1 mol.% catalyst): 15.357 kg β-IP/h/kg catalyst; space-time yield YR-Z based on α-IP used (1 mol.% catalyst): 0.086 kg β-IP/h/liter; Rate of formation of β-IP [2]: 72 g β-IP/h/liter α-IP"
"[NH2-].[Na+] [NaNH2, sodium amide]",49.6,–
"O=C(O)O [K2 CO3, potassium carbonate]",73.8,"improved space-time yield YR-Z based on the volume of the educt solution used: 80 g β-IP/h per kg α-IP; conversion, β-isophorone per kg of catalyst used and per hour [3]: approximately 422.15 kg; β-IP formation [3]: 74 g β-IP/h/liter; β-IP formation per kg solution [3]: 80.43 g β-IP/h/kg solution; Rate of formation of β-IP [2]: 68.8 g β-IP/h/liter α-IP; Rate of formation of β-IP [4]: 76.4 g β-IP/h/liter α-IP"
[K+].[OH-] [KOH],66.9,–
O=C(O)O [NaHCO3],55.1,–
O=C(O)O [Li2 CO3],48.3,–
CO [Na(OMe)],46.9,–
"[Na+].[OH-] [NaOH, sodium hydroxide]",54.6,Rate of formation of β-IP [4]: 79.5 g β-IP/h/liter α-IP
[AlH4-].[Li+] [LiAIH4],43.3,–
O=S(=O)([O-])O.[K+] [kHSO4],44.7,–
[H-].[Na+] [NaH],58.6,–
[Na] [Na],53.7,–
[Ca+2].[OH-].[OH-] [Ca(OH)2],41.1,–
[Mg+2].[OH-].[OH-] [Mg(OH)2],8.2,Rate of formation of β-IP [4]: 9.3 g β-IP/h/liter α-IP
